Results reported in patent US20130123248A1, “PHARMACOLOGICAL MODULATION OF POSITIVE AMPA RECEPTOR MODULATOR EFFECTS ON NEUROTROPHIN EXPRESSION” (The Regents of the University of California, priority 2006, published 2013).
Entries after “also recorded” stand apart in the source; their conditions may differ.

Assays:
[1] = system: BDNF mRNA; test: BDNF mRNA in situ hybridization in cultured rat hippocampal slices; type: cell-based; details: for hybridization to BDNF mRNA, principal hippocampal cell layers, entorhinal cortex, neocortex: CX614 50 μM
Method: Cultured hippocampal slices were prepared from rat pups (9 d postnatal) essentially as described by Lauterborn et al. (Lauterborn et al., 2000, J Neurosci 20(1):8-21). Slices were explanted onto Millicel-CM biomembrane inserts (Millipore, Bedford, Mass.; 6 slices/membrane) in a 6-well culture cluster plate (Corning, Cambridge, Mass.) containing sterile media (1 ml/well) consisting of minimum essential media, 30 mM dextrose, 30 mM HEPES, 5 mM Na2HCO3, 3 mM glutamine, 0.5 mM ascorbic acid, 2 mM CaCl2, 2.5 mM MgSO4, 1 mg/l insulin and 20% horse serum (pH 7.2; all reagents from Sigma, St. Louis, Mo.) and maintained for 10-18 d in a humidified incubator at 37° C. in 5% CO2. Media was changed three times/week. All experiments with the […]® (Cortex Pharmaceuticals) and mGluR5 antagonist (gift from FRAXA Research Foundation) began on days 11-12 in culture and were performed essentially as described by Lauterborn et al. (Lauterborn et al., 2000, J Neurosci 20(1):8-21) and Huber et al. (Huber et al., 2002, Proc Natl Acad Sci USA 99(11):7746-50). […]® were dissolved in 100% dimethylsulfoxide (DMSO; Sigma) and stored at -20° C. MPEP was dissolved in 100% DMSO. […] For controls, cultures were either untreated or treated with equivalent concentrations of vehicle (i.e., DMSO at final concentrations of 1:2,000-1:10,000). […] The cRNA to BDNF exon V was generated from PvuII-digested recombinant plasmid pRl 112-8 (Isackson et al., 1991, Neuron 6:937-948), yielding a 540 base length probe with 384 bases complementary to BDNF exon V-containing mRNA (Timmusk et al., 1993, Neuron 10:475-489). In situ hybridization was performed essentially as described by Lauterborn et al. (Lauterborn et al., 2000, J Neurosci 20(1):8-21; Lauterborn et al., 1994, Mol Cell Neurosci 5:46-62). Briefly, for in situ hybridization analyses, treatments were terminated by slice fixation with 4% paraformaldehyde in 0.1 M phosphate buffer, pH 7.2 (PPB). Cultures were re-sectioned parallel to the broad explant surface, slide-mounted, and processed for the in situ hybridization localization of BDNF mRNA using the ^35S-labeled BDNF cRNA probe described above. Following hybridization, the tissue was processed for film (Kodak Biomax) autoradiography. Quantification of in situ hybridization was performed essentially as described by Lauterborn et al. (Lauterborn et al., 2000, J Neurosci 20(1):8-21). Briefly, for quantification of in situ hybridization, hybridization densities were measured from film autoradiograms, with labeling densities calibrated relative to film images of ^14C-labeled standards (μCi/g), using the AIS system (Imaging Research Inc.). Significance was determined using the two-way ANOVA followed by Student-Newman-Keuls (SNK) or Student's t tests for individual comparisons.

[2] = system: GluR1 mRNA; test: GluR1 mRNA in situ hybridization in hippocampal slice cultures; type: cell-based, rat; details: 48 h
[3] = system: GluR2 mRNA; test: GluR2 mRNA in situ hybridization in hippocampal slice cultures; type: cell-based, rat; details: 48 h
[4] = system: mature BDNF protein; test: Western blot for mature BDNF protein in organotypic hippocampal cultures; type: cell-based, rat; details: 24 h; CX614 50 μM
Method: Cultured hippocampal slices were prepared from rat pups (9 d postnatal) essentially as described by Lauterborn et al. (Lauterborn et al., 2000, J Neurosci 20(1):8-21). Slices were explanted onto Millicel-CM biomembrane inserts (Millipore, Bedford, Mass.; 6 slices/membrane) in a 6-well culture cluster plate (Corning, Cambridge, Mass.) containing sterile media (1 ml/well) consisting of minimum essential media, 30 mM dextrose, 30 mM HEPES, 5 mM Na2HCO3, 3 mM glutamine, 0.5 mM ascorbic acid, 2 mM CaCl2, 2.5 mM MgSO4, 1 mg/l insulin and 20% horse serum (pH 7.2; all reagents from Sigma, St. Louis, Mo.) and maintained for 10-18 d in a humidified incubator at 37° C. in 5% CO2. Media was changed three times/week. […]
For protein determinations, drug-treated and vehicle-treated hippocampal slice cultures were homogenized in RIPA (Radio-Immunoprecipitation Assay) buffer containing 10 mM Tris, pH 7.2, 158 mM NaCl, 1 mM EDTA, 0.1% SDS, 1% sodium deoxycholate, 1% triton-X, Complete Protease Inhibitor Cocktail (Roche Diagnostics; Indianapolis, Ind.), and Phosphatase Inhibitor Cocktails 1 and 2 (P2850 and 5726, Sigma), normalized for protein content using the Bio-Rad protein assay, and analyzed by Western blot analysis. […] Binding of anti-BDNF antibodies to BDNF was detected by enhanced chemiluminescence. Band densities were quantified using ImageQuant software (Molecular Dynamics, Sunnyvale, Calif.). […]

[5] = system: rat fear-potentiated startle model of anxiety; details: cited from earlier work
[6] = target: mGluR5 (Homo sapiens, UniProt P41594); details: cited from earlier work
[7] = CX614 (20 μM in FIG. 6 legend, 50 μM in Example 6), MPEP 50 μM or both

mGluR5, sequence (P41594 21-1212): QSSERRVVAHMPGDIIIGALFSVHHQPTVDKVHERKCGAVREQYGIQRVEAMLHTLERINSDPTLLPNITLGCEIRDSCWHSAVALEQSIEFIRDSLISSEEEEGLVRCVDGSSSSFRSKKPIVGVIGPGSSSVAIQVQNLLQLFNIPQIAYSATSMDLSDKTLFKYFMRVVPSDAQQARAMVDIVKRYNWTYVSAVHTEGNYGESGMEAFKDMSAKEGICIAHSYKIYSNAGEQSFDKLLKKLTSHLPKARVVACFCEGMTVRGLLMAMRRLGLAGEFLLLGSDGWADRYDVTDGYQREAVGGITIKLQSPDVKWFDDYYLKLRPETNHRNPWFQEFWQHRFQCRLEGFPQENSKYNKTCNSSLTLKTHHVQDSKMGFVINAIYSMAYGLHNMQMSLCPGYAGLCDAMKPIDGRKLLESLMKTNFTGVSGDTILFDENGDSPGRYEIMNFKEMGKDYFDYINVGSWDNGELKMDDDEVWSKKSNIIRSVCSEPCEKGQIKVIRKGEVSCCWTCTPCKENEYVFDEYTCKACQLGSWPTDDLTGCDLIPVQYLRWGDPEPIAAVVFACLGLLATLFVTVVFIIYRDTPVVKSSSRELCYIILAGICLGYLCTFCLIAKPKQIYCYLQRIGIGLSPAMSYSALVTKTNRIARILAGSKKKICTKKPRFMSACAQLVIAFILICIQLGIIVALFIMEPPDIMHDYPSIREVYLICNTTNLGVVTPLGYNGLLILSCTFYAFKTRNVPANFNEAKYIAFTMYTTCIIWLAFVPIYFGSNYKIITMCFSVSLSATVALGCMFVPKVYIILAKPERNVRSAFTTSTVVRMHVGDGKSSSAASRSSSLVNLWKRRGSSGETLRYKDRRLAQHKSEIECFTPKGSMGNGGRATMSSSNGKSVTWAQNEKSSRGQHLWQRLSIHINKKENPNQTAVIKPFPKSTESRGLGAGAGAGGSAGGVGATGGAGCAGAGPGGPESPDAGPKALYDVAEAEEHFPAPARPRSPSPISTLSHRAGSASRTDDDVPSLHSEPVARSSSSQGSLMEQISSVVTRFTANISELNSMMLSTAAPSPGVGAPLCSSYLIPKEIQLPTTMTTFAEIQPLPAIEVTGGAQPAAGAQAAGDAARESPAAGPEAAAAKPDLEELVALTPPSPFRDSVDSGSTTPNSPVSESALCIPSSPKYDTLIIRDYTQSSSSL

## O=C1c2cc3c(cc2OC2CCCN12)OCCO3 (stereo not shown) [CX614, 2H,3H,6aH-pyrrolidino[2″,1″-3′,2′]1,3-oxazino[6′,5′-5,4]benzo[e]1,4-dioxan-10-one]
[1]; 3 h, 10 μM CX614
  BDNF cRNA labeling, granule cells: modest increase
[1]; 3 h, CX614 50 μM with or without MPEP 50 μM
  BDNF mRNA levels in CA1 stratum pyramidale, effect in words: small but non-significant increased
[1]; 3 h, CX614 50 μM with or without MPEP 50 μM, vs control
  increase in BDNF mRNA, hippocampal granule cells (stratum granulosum): 6.5 fold
[1]; 3 h, CX614 10, 20 or 50 μM
  BDNF mRNA, granule cells: increased by all three doses
  BDNF mRNA, pyramidal cells of CA1 and CA3: only increased with the 50 μM concentration; also recorded: only 50 μM CX614 elicited significant increases
[1]; 3 h, higher doses of CX614 (20, 50 μM)
  BDNF cRNA labeling, granule cells: more dramatic increases
[1]; 24 h, CX614 20 μM with or without MPEP 50 μM
  BDNF mRNA levels, CA1 pyramidal cells: small but non-significant increase
[1]; 6 h
  hybridization to BDNF mRNA, principal hippocampal cell layers, entorhinal cortex, neocortex: increased; also recorded: markedly elevated
[1]; 24 h continuous treatment
  hybridization to BDNF mRNA, principal hippocampal cell layers, entorhinal cortex, neocortex: still elevated above control densities; also recorded: begin to decline
[2]; CX614 20 μM (FIG. 6 legend)
  reduction of GluR1 mRNA levels, CA1 stratum pyramidale: 40%
[2]; CX614 50 μM (Example 6)
  reduction of GluR1 mRNA levels, CA1 pyramidal cell layer, compared to control: 40-45%
[3]; CX614 20 μM (FIG. 6 legend)
  reduction of GluR2 mRNA levels, CA1 stratum pyramidale: ~50%
[3]; CX614 50 μM (Example 6)
  reduction of GluR2 mRNA levels, CA1 pyramidal cell layer, compared to control: 40-45%
[4]
  mature BDNF protein levels above control levels: 133%

## Cc1nc(C#Cc2cccnc2)cs1 [MTEP, 3-[(2-methyl-1,3-thiazol-4-yl)ethynyl]pyridine]
[5]
  potency relative to MPEP: 5 fold

## Cc1cccc(C#Cc2ccccc2)n1 [MPEP, 2-methyl-6-(phenylethynyl)pyridine]
[1]; 3 h, MPEP 50 μM alone
  BDNF mRNA levels in the granule cell layer / any field, effect in words: unaffected; also recorded: no effect in any field
[2]; [7]
  GluR1 mRNA levels, CA1, effect in words: no significant effect
[3]; [7]
  GluR2 mRNA levels, CA1, effect in words: no significant effect; also recorded: small but non-significant increase

## C=Cc1cncc(C#Cc2csc(C)n2)c1 [Iso et al. compound 59, 3-[(2-methyl-4-thiazoly)ethynyl]-5-vinylpyridine]
[6]
  antagonistic potency relative to MTEP: 230 times
